Data on six molecules can be found in patent US20220002267A1, “TYROSINE KINASE 2 INHIBITORS, PREPARATION METHODS AND MEDICINAL USES THEREOF” (Eternity Bioscience Inc., priority 2020, published 2022).

For test [1], the system named is Tyk2-mediated, IL23-induced STAT3 phosphorylation in human Kit225 T cell line. In words: IL-23_Kit225 T Cell Assay (phosphorylated-STAT3, AlphaLISA). In kind it is cell-based. The settings on record: Kit225 cells, compound 1 hour, human recombinant IL-23 20 minutes, pSTAT3. On the procedure: (§1) Kit225 cells (licensed from Professor Toshiyuki Hori, Ritsumeikan University, Japan) were seeded in 384-well plate at a density of 1×10^5 cells/well in 4 μL Hank's Balanced Salt Solution (HBSS, Gibco), and incubated for 2 hours in a humidified, 5% CO2 cell culture incubator at 37° C. The cells were treated with serial diluted compounds for 1 hour and stimulated with human recombinant IL-23 (R&D Systems) for 20 minutes. The treated cells were then lysed and cellular phosphorylated-STAT3 levels were measured by AlphaLISA (PerkinElmer) according to the manufacture's instructions. Inhibition data were calculated by comparison to vehicle control wells for 0% inhibition and non-stimulated control wells for 100% inhibition. Dose response curves were then generated to determine the concentration required to suppress 50% of cellular response (IC50) as derived by non-linear regression analysis using GraphPad Prism.
(In general: Bead proximity is the source of the signal in Alpha formats.)

Test [2] relates to Tyk2-mediated, IFNα-induced STAT1 phosphorylation in human Kit225 T cell line. In words: IFNα_Kit225 T Cell Assay (phosphorylated-STAT1, AlphaLISA). In kind it is cell-based. Conditions: Kit225 cells, compound 1 hour, human recombinant IFNα 20 minutes, pSTAT1; read-out: IFN-α Kit225 (IC50). On the procedure:
as §1, with “cells” for “cells (licensed from Professor Toshiyuki Hori, Ritsumeikan University, Japan)”, “0.5×10^5” for “1×10^5”, “HBSS,” for “Hank's Balanced Salt Solution (HBSS, Gibco),”, “IFNα (Biolegend)” for “IL-23 (R&D Systems)”, “phosphorylated-STAT1” for “phosphorylated-STAT3”

The target of a further test is T1, Tyk2 JH2 Pseudokinase (Homo sapiens, UniProt P29597).
T1 construct: purchased Eurofins DiscoverX Corporation (CRO); host or cells: E. coli BL21-derived host (T7 phage) or HEK-293 cells
T1 sequence (P29597 589-875 limits assumed): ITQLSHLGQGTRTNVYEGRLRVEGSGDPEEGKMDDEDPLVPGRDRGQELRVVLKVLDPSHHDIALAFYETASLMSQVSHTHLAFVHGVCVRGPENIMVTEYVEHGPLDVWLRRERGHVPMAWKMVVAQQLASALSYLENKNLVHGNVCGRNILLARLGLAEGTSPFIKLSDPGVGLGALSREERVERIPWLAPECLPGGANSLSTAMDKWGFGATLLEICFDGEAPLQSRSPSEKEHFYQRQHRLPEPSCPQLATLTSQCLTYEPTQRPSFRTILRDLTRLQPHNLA
Put plainly: KdELECT Competition Binding Assay. Conditions: 11-point 3-fold dilution series; performed by Eurofins DiscoverX. Here is the method: The KdELECT Competition Binding Assay is performed by a CRO, Eurofins DiscoverX Corporation following the established standard protocol (DiscoverX, San Diego, Calif.). Briefly, Kinase-tagged T7 phage strains were prepared in an E. coli host derived from the BL21 strain. E. coli were grown to log-phase and infected with T7 phage and incubated with shaking at 32° C. until lysis. The lysates were centrifuged and filtered to remove cell debris. The remaining kinases were produced in HEK-293 cells and subsequently tagged with DNA for qPCR detection. Streptavidin-coated magnetic beads were treated with biotinylated small molecule ligands for 30 minutes at room temperature to generate affinity resins for kinase assays. The liganded beads were blocked with excess biotin and washed with blocking buffer (SeaBlock (Pierce), 1% BSA, 0.05% Tween 20, 1 mM DTT) to remove unbound ligand and to reduce nonspecific binding. Binding reactions were assembled by combining kinases, liganded affinity beads, and test compounds in 1× binding buffer (20% SeaBlock, 0.17×PBS, 0.05% Tween 20, 6 mM DTT). Test compounds were prepared as 111-fold stocks in 100% DMSO. Kds were determined using an 11-point 3-fold compound dilution series with three DMSO control points. All compounds for Kd measurements are distributed by acoustic transfer (non-contact dispensing) in 100% DMSO. The compounds were then diluted directly into the assays such that the final concentration of DMSO was 0.9%. All reactions performed in polypropylene 384-well plate. Each was a final volume of 0.02 mL. The assay plates were incubated at room temperature with shaking for 1 hour and the affinity beads were washed with wash buffer (1×PBS, 0.05% Tween 20). The beads were then re-suspended in elution buffer (1×PBS, 0.05% Tween 20, 0.5 μM non-biotinylated affinity ligand) and incubated at room temperature with shaking for 30 minutes. The kinase concentration in the eluates was measured by quantitative PCR.
Compound Handling: An 11-point 3-fold serial dilution of each test compound was prepared in 100% DMSO at 100-fold final test concentration and subsequently diluted to 1-fold in the assay (final DMSO concentration=1%). Most Kds were determined using a compound top concentration=30,000 nM. If the initial Kd determined was <0.5 nM (the lowest concentration tested), the measurement was repeated with a serial dilution starting at a lower top concentration.

In test [3] the test system is IL-12/IL-23 and Type I IFN pathways. The settings on record: Tokarski et al. 2015; cited from earlier work.
Test [4] relates to experimental autoimmune disease models (psoriasis, SLE, and IBD). The settings on record: cited from earlier work.

On to `[2H]C([2H])([2H])NC(=O)c1nnc(Nc2ccc(N3CC(OC)C3)cn2)cc1Nc1cccc(-c2ncn(C)n2)c1OC` [Example A4, 4-((2-methoxy-3-(1-methyl-1H-1,2,4-triazol-3-yl)phenyl)amino)-6-((5-(3-methoxyazetidin-1-yl)pyridin-2-yl)amino)-N-(methyl-d3)pyridazine-3-carboxamide], for which the IC50 in test [1] is 5.9 nM; in test [2], 83 nM. The molecule further returned a Kd on Tyk2 JH2 Pseudokinase of 0.0052 nM.

In the case of `CNC(=O)c1nnc(Nc2ccc(N3CCC3)cn2)cc1Nc1cccc(-c2ncn(C)n2)c1OC` [Example A1, 6-((5-(azetidin-1-yl)pyridin-2-yl)amino)-4-((2-methoxy-3-(1-methyl-1H-1,2,4-triazol-3-yl)phenyl)amino)-N-methylpyridazine-3-carboxamide], the IC50 came to 6.7 nM in test [1] and 11 nM in test [2]. Binding at Tyk2 JH2 Pseudokinase was put at a Kd of 0.067 nM.

In the case of BMS986165, in test [3], the “block of IL-12/IL-23 and Type I IFN pathways” value was “effectively block”. Further, in test [4], the “in vivo efficacy in experimental autoimmune disease models” value is given as “substantial in vivo efficacy”.

Regarding `CNC(=O)c1nnc(Nc2ccc(N3CC(F)(F)C3)cn2)cc1Nc1cccc(-c2ncn(C)n2)c1OC` [Example A2, 6-((5-(3,3-difluoroazetidin-1-yl)pyridin-2-yl)amino)-4-((2-methoxy-3-(1-methyl-1H-1,2,4-triazol-3-yl)phenyl)amino)-N-methylpyridazine-3-carboxamide], the half-maximal inhibitory concentration (IC50) in test [1] is 31 nM; in test [2] it was 25 nM. At Tyk2 JH2 Pseudokinase, this molecule yielded a Kd of 0.0063 nM.

Regarding `[2H]C([2H])([2H])NC(=O)c1nnc(Nc2ccc(C3(O)COC3)cn2)cc1Nc1cccc(-c2ncn(C)n2)c1OC` [Example A5, 6-((5-(3-hydroxyoxetan-3-yl)pyridin-2-yl)amino)-4-((2-methoxy-3-(1-methyl-1H-1,2,4-triazol-3-yl)phenyl)amino)-N-(methyl-d3)pyridazine-3-carboxamide], the IC50 in test [1] worked out at 38 nM; in test [2], 230 nM. This molecule also came in with a Kd at Tyk2 JH2 Pseudokinase of 0.0043 nM.

Take `CNC(=O)c1nnc(Nc2cccc(N3CCC3)n2)cc1Nc1cccc(-c2ncn(C)n2)c1OC` [Example A3, 6-((6-(azetidin-1-yl)pyridin-2-yl)amino)-4-((2-methoxy-3-(1-methyl-1H-1,2,4-triazol-3-yl)phenyl)amino)-N-methylpyridazine-3-carboxamide]: the IC50 in test [1] was determined as 15 nM; in test [2] it was 6 nM. On Tyk2 JH2 Pseudokinase, this molecule had a Kd of 0.011 nM.

In general, IC50 refers to the concentration needed to halve the response being measured. As usually defined, the Kd is the constant that tells how readily two partners part at equilibrium.
